# Calls of active or inactive are those of the source. The calls are words filed in the database; no cut-off is given here.
# Assays:
# A2780 [1] = test: Inhibition of mitochondrial transcript in human A2780 cells assessed as decrease in CYTB expression by RT-qPCR analysis; assay type: functional, cell-based
# A2780 [2] = test: Induction of cell cycle arrest in human A2780 cells assessed as accumulation of cells at G1 phase at 200 nM measured after 96 hrs by PI staining based flow cytometry analysis (reference value: 80.81%); assay type: functional
# A2780 [3] = test: Induction of cell cycle arrest in human A2780 cells assessed as accumulation of cells at S phase at 200 nM measured after 96 hrs by PI staining based flow cytometry analysis (reference value: 14.7%); assay type: functional
# A2780 [4] = test: Effect on 5S mRNA level in human A2780 cells by RT-qPCR analysis; assay type: functional, cell-based
# A2780 [5] = test: Induction of cell cycle arrest in human A2780 cells assessed as accumulation of cells at S phase at 100 nM measured after 96 hrs by PI staining based flow cytometry analysis (reference value: 14.7%); assay type: functional
# Cytochrome P450 2C9 = Cytochrome P450 2C9 (Homo sapiens, UniProt P11712); test: Inhibition of CYP2C9 (unknown origin) using diclofenac as substrate in presence of NADPH by LC/MS/MS analysis; assay type: ADME
# Cytochrome P450 2C9, sequence (P11712 whole entry): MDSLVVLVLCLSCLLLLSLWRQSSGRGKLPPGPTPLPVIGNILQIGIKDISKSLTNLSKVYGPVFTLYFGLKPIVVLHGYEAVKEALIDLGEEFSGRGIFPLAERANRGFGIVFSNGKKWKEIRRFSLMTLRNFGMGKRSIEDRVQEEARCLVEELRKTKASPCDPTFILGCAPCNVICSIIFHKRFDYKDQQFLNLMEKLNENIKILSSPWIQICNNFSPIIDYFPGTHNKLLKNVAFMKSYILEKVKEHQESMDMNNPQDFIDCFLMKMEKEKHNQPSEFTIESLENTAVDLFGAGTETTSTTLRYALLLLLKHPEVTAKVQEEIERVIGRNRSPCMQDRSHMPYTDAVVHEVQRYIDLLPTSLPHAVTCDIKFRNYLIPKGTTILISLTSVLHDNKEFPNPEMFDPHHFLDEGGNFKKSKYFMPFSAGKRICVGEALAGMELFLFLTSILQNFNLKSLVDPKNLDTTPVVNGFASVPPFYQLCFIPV
compound,measurement,setting,value
Cc1ccc(-c2cc(=O)oc3cc(O[C@H](C)C(=O)N4CC5CCC(C4)N5C)ccc23)c(C)c1,inhibition,A2780 [1],Active
same,Activity,A2780 [2],87.77%
same,Activity,A2780 [3],9.07%
same,Activity,A2780 [4],inactive
same,Activity,A2780 [5],9.15%
same,IC50,Cytochrome P450 2C9,34.7 µM
